From patent publication US12251373B2, “Compounds and methods of treating retinal degeneration” (CASE WESTERN RESERVE UNIVERSITY, priority 2017, dated 2025)

Legend:
human rod opsin D190N = biological target: T1, human rod opsin D190N (Homo sapiens, UniProt P08100, D190N); assay: Cell surface immunostain for rhodopsin mutants in NIH3T3 cells; type: cell-based; details: YC-001 treatment
T1 construct: expressed in transfected cells; host or cells: NIH3T3, transfected with pcDNA3.1-hOpsin mutant
Method: (§1) Human rhodopsin cDNA was placed into the pcDNA3.1(+) vector (pcDNA3.1-hOpsin). Site directed mutagenesis was performed following the QuickChange II site-directed mutagenesis kit (Agilent Technologies Inc.). Primers for the following mutations were as follows: […]
(§2) DNA vectors with rhodopsin mutations were confirmed by Sanger sequencing. After NIH3T3 cells were transfected with pcDNA3.1-hOpsin or its mutants for 24 h, these cells were resuspended and seeded into a 96-well plate with an optic bottom (Corning). […] Each condition was repeated in three wells. The treated plate was covered in tin foil and incubated at 37° C. with 5% CO2 for 24 h. Cells were then immunostained with Alexa […] 488-conjugated B6-30 anti-rhodopsin antibody. Cells were not exposed to detergents so that cell membranes were kept intact and only rhodopsin on the cell surface was immunostained. Alexa 488 fluorescence was imaged by the ImageExpress (Molecular Devices) high-content imager with a 20× objective. Medicinal Chemistry of YC-001

human rod opsin C110Y = biological target: T2, human rod opsin C110Y (Homo sapiens, UniProt P08100, C110Y); assay: as above; type: cell-based; details: YC-001 treatment
T2 construct: expressed in transfected cells; host or cells: NIH3T3, transfected with pcDNA3.1-hOpsin mutant
Method: as §1, §2

human rod opsin G106R = biological target: T3, human rod opsin G106R (Homo sapiens, UniProt P08100, G106R); assay: as above; type: cell-based; details: YC-001 treatment
T3 construct: expressed in transfected cells; host or cells: NIH3T3, transfected with pcDNA3.1-hOpsin mutant
Method: as §1, §2

human rod opsin P267L = biological target: T4, human rod opsin P267L (Homo sapiens, UniProt P08100, P267L); assay: as above; type: cell-based; details: YC-001 treatment
T4 construct: expressed in transfected cells; host or cells: NIH3T3, transfected with pcDNA3.1-hOpsin mutant
Method: as §1, §2

Abca4−/−Rdh8−/− mice = assay: Bright light-induced retinal degeneration; type: in vivo, mouse; details: 50 or 200 mg kg−1 bw i.p. 30 min before 10,000 lux for 30 min; SD-OCT and HE seven days later
Method: Abca4^−/−Rdh8^−/−42 mice with a 129Sv/Ev or C57BL/6 mixed background were used for light-induced retinal degeneration assays. […] Male and female C57BL/6 mice (Jackson Laboratory, Bar Harbor, ME) at six weeks of age were used to test the effects of YC-001 treatment on the retinoid cycle and bw as well as to determine parenterally administrated YC-001 enter the eyes. YC-001 was dissolved in DMSO at 80-160 mg mL^−1, and the solution was provided to mice by i.p. injection. All mice were housed and maintained in a 12 h light (≤10 lux)/12 h dark cycle in the Animal Resource Center at the School of Medicine, CWRU. […]
Retinal degeneration was initiated by exposing Abca4^−/−Rdh8^−/− mice for 30 min to white light with an intensity of 10,000 lux (150-W spiral lamp, Hampton Bay, Home Depot, Atlanta, GA USA). […] Retinal structures were analyzed by SD-OCT seven days after bright light exposure. […]
To assess the effect of YC-001 treatment on Abca4^−/−Rdh8^−/− mice following bright light-induced retinal degeneration, we performed ultrahigh-resolution SD-OCT (Bioptigen, Morrisville, NC) for in vivo imaging of mouse retinas. […] To measure changes to photoreceptors in the retinas challenged with bright light and assess the effect of YC-001 on retinal protection, the thickness of the ONL was measured along the scanned SD-OCT image at 8 points from the nasal to temporal end of the retina. […]

O=C1OCC(c2ccc(Cl)s2)=C1c1cccs1 [YC-001]
cell surface staining of mutant opsin (human rod opsin D190N): increased significantly | cell surface staining of mutant opsin (human rod opsin C110Y): not effective | cell surface staining of mutant opsin (human rod opsin G106R): increased significantly | cell surface staining of mutant opsin (human rod opsin P267L): increased significantly | protection of the ONL from light-induced damage (Abca4−/−Rdh8−/− mice): dose-dependent protection of the ONL
